Experiments:
[1] = HPLC lipophilicity on IAM (immobilized artificial membrane, phosphatidylcholine) stationary phase; assay type: physicochemical; conditions: pH 7.4; for Log k IAM: Table S2; for log kw IAM: intercept, linear extrapolation to water; for log kw IAM / -S IAM: ACN/20 mM phosphate buffer; for -S IAM: slope of Soczewiński–Wachtmeister equation
Description: (§1) For the evaluation of the compounds the following stationary phases were used: C-18; biomimetic, IAM; cholesterol (Chol); immobilized proteins HSA and AGP. For the lipophilicity determination, MeOH (C-18, Chol) or ACN (IAM) were applied as the organic modifiers. The measurements were performed at pH 7.4 of the mobile phase. The regular changes in the retention of all solutes used as organic modifier content in the mobile phase on three studied stationary phases were found. It is expressed by the Soczewiński–Wachtmeister Equation (1):log k = log kw + S (% organic modifier)(1) where log kw—the intercept; S—the slope of regression curve. […] Log kw as well as S parameters are commonly applied as lipophilicity descriptors.
(§2) HPLC measurements were performed using a liquid chromatograph Knauer (Knauer, Berlin, Germany) with a dual pump, a 20 µL simple injection valve, and a UV–visible detector. The compounds were detected under UV light at 280 nm at room temperature. The retention time of an unretained solute (t0) was determined by the injection of a small amount of citric acid dissolved in water.
A Rexchrom IAM.PC.DD2 (12 μm, 100 × 4.6 mm, 300 Å) (Regis Technologies, Morton Grove, IL, USA) column was used as the stationary phase. The compounds were dissolved at a concentration of 0.5 mg × mL^−1 in MeOH. The mobile phases consisted of different volume fractions of ACN and 20 mM phosphate buffer; the aqueous phase maintained a pH = 7.4 (0.02 M KH2PO4, Na2HPO4 and 0.15 M KCl). The acetonitrile concentration ranged from 0.05 to 0.4 (v/v), depending on the structure of compound, at 0.05 intervals (Table S2 in the Supplementary Materials). The flow rate was 1 mL × min^−1.

[2] = biological target: T1, human serum albumin (HSA) (Homo sapiens, UniProt P02768); assay: HPLC on immobilized HSA column, affinity and % plasma–protein binding; assay type: in vitro ADME; conditions: for log K HSA: binding equilibrium constant from calibration curve (Equation 8) of log k HSA; for log k HSA: retention on HSA column, 50 mM ammonium acetate pH 7.4 / propan-2-ol 85/15 (v/v); for fraction unbound: human, pH 7.4, % plasma–protein binding converted from log K HSA (Equation 10), read-out: %PPB HSA (converted)
T1 construct: purchased Chiralpac
Description: (§3) Measurements on HSA and AGP immobilized protein columns were carried out with […] isopropanol content in the aqueous mobile phase.
(§4) The standard calibration curve was used to predict log K values (K—binding equilibrium constant) of investigated compounds to HSA and AGP. Next, the log K values were converted into a percentage of plasma–protein binding (%PPB) of the compounds (Table 2). […] It is the lowest for compound 16 with -NO2 substituent, unsubstituted compound 1, and fluorine derivatives 2 and 9. In a group of […] derivatives in the same position of the phenyl ring, the %PPB to AGP increases with the increase in the atomic weight of the halogen atom and the lipophilicity of the molecule.
as §2
(§5) A human serum albumin (HSA) immobilized on the 5 µm silica gel column 100 × 3 mm (Chiralpac) and an α1-acid glycoprotein (AGP) immobilized on the 5 µm silica gel column 100 × 4 mm (Chiralpac) were used. The compounds were dissolved at 0.5 mg/mL concentration in 50% propan-2-ol and ammonium acetate solution (pH = 7.4) mixtures for HSA measurements. The mobile phase was composed of 50 mM ammonium acetate solution (pH = 7.4) and propan-2-ol at 85/15 (v/v) for AGP, respectively. The flow of mobile phases was 0.5 mL×min^−1. Log k values for the selected mobile phase were determined for all studied compounds and standard substances. The % protein plasma binding (% PPB) values were calculated from the calibration curve according to Valko et al..
(§6) Calibration of the protein columns: The column performance check and the calibration check were performed before measurements. The racemic mixture of warfarin was used for their performance evaluation. The following calibration set of drugs was applied: bromazepam, carbamazepine, diclofenac, nicardipine, nizatidine, piroxicam for HSA and bromazepam, chlorpromazine, imipramine, nicardipine, nizatidine, propranolol, and warfarin for AGP. The analytical standards were purchased from Sigma Aldrich Steinhen, Steinheim am Albuch, Germany). The drugs were dissolved at 0.5 mg/mL concentration in 50% propan-2-ol and ammonium acetate solution mixtures (pH = 7.4). The obtained log k values from HPLC were plotted against the log K values (K—binding equilibrium constant, log K—linearized PPB) based on the literature data for plasma–protein binding (%, PPB). The following relationships were obtained: log KHSA = 0.2513 (±0.0984) + 1.0525 (±0.1171) log k HSA(8) n=6, R=0.9761, R^2 = 0.9528, Radj2 = 0.9410, s = 0.1948 log KAGP = 0.1733 (±0.0574) + 0.8902 (±0.0787) log k AGP(9) n=7, R=0.9810, R^2 = 0.9623, Radj2 = 0.9548, s = 0.1113
(§7) Log K values were converted into %PPB using the following equation [15]:(10) %PPB=101×10^logK/1+10^logK

[3] = HPLC lipophilicity on cholesterol (Chol) stationary phase; assay type: physicochemical; conditions: pH 7.4; for Log k Chol: Table S3; for log kw Chol: intercept, linear extrapolation to water; for log kw Chol / -S Chol: MeOH/20 mM acetate buffer; for -S Chol: slope of Soczewiński–Wachtmeister equation
Description: as §1, §2
Cogent 4 UDC Cholesterol (150 × 2.1 mm, 4 µm) MicroSolv Technology Corporation (Leland, NC, USA) column was used. The mobile phase consisted of different volume mixtures of MeOH as the organic modifier and 20 mM acetate buffer as the aqueous phase, to obtain pH = 7.4. The concentrations of the organic modifier were in the range from 0.3 to 0.8 (v/v) with step 0.05 or 0.1 (Table S3 in the Supplementary Materials). The flow rate was 0.35 mL × min^−1.

[4] = parameters: method as in Kozyra et al. [31]; conditions: MeOH/20 mM acetate buffer, pH 7.4, ref Kozyra et al. [31], cited from earlier work; for log kw C-18: intercept of Soczewiński–Wachtmeister equation (water as mobile phase); for -S C-18: slope of Soczewiński–Wachtmeister equation
[5] = tested on: α1-acid glycoprotein (AGP); assay: HPLC on immobilized AGP column, affinity and % plasma–protein binding; assay type: in vitro ADME, human; conditions: for log K AGP: binding equilibrium constant from calibration curve (Equation 9) of log k AGP; for fraction unbound: human, pH 7.4, % plasma–protein binding converted from log K AGP (Equation 10), read-out: %PPB AGP (converted); for log k AGP: retention on AGP column, 50 mM ammonium acetate pH 7.4 / propan-2-ol 85/15 (v/v)
Description: as §3, §4, §2, §5, §6, §7

T1 sequence (P02768 25-609): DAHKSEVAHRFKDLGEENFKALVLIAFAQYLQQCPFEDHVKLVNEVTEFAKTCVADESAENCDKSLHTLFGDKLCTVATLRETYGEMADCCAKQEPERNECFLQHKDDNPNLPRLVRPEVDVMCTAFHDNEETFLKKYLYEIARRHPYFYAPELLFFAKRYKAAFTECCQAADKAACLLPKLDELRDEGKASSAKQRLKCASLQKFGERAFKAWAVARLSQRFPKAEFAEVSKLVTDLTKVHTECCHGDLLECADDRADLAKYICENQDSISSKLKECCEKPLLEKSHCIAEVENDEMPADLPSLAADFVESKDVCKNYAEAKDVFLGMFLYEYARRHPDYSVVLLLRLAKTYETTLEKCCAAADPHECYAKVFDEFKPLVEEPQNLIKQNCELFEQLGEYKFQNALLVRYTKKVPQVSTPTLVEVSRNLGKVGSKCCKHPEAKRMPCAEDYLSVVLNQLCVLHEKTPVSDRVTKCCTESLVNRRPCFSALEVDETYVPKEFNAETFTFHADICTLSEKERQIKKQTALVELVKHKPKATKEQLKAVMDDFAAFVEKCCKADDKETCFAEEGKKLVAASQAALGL

Row | SMILES | Log k IAM ([1]; ACN 0.15 v/v in mobile phase) | Log k IAM ([1]; ACN 0.20 v/v in mobile phase) | Log k IAM ([1]; ACN 0.25 v/v in mobile phase) | Log k IAM ([1]; ACN 0.30 v/v in mobile phase) | Log k IAM ([1]; ACN 0.35 v/v in mobile phase) | log kw IAM [1] | -S IAM [1] | log K HSA [2] | log k HSA [2] | Log k Chol ([3]; MeOH 0.40 v/v in mobile phase) | Log k Chol ([3]; MeOH 0.50 v/v in mobile phase) | Log k Chol ([3]; MeOH 0.60 v/v in mobile phase) | Log k Chol ([3]; MeOH 0.80 v/v in mobile phase) | log kw Chol [3] | -S Chol [3] | log K AGP [5] | fraction unbound [5] | log k AGP [5] | log kw C-18 [4] | -S C-18 [4] | also measured
1 | O=C(COc1ccccc1)NNC(=S)Nc1ccc(Br)cc1 [Compound 11] | 1.141 | 0.792 | 0.453 | 0.004 | -0.111 | 2.1020 | 6.5856 | 2.0248 | 1.685 | 1.158 | 0.571 | 0.276 | -0.886 | 3.1674 | 5.0251 | 0.6344 | 0.18 | 0.518 | 2.734 | 4.6183 | Log k Chol ([3]; MeOH 0.35 v/v in mobile phase): 1.437; Log k Chol ([3]; MeOH 0.45 v/v in mobile phase): 0.871
2 | O=C(COc1ccccc1)NNC(=S)Nc1ccc(I)cc1 [Compound 12] | 1.352 | 0.951 | 0.655 | 0.141 | -0.016 | 2.3341 | 6.8364 | 2.1778 | 1.8304 | 1.303 | 0.685 | 0.404 | -0.783 | 3.3300 | 5.0829 | 0.8378 | 0.118 | 0.7465 | 2.9681 | 4.8352 | Log k IAM ([1]; ACN 0.40 v/v in mobile phase): -0.358; Log k Chol ([3]; MeOH 0.45 v/v in mobile phase): 1.049; Log k Chol ([3]; MeOH 0.70 v/v in mobile phase): -0.214
3 | O=C(COc1ccccc1)NNC(=S)Nc1ccccc1Cl [Compound 3] | 0.794 | 0.515 | 0.291 | -0.138 | -0.209 | 1.5588 | 5.2422 | 1.2059 | 0.9070 | 0.759 | 0.198 | -0.068 | -1.020 | 2.3437 | 4.1573 | 0.5523 | 0.211 | 0.4257 | 2.3929 | 4.5312 | Log k IAM ([1]; ACN 0.10 v/v in mobile phase): 1.022; fraction unbound [2]: 0.049; Log k Chol ([3]; MeOH 0.30 v/v in mobile phase): 1.024; Log k Chol ([3]; MeOH 0.35 v/v in mobile phase): 0.917; Log k Chol ([3]; MeOH 0.45 v/v in mobile phase): 0.461
4 | O=C(COc1ccccc1)NNC(=S)Nc1ccccc1F [Compound 2] | 0.455 | 0.234 | -0.010 | -0.358 | -0.461 | 1.1961 | 4.8953 | 1.2775 | 0.9750 | 0.441 | -0.037 | -0.314 | -1.104 | 1.9241 | 3.7822 | 0.3986 | 0.278 | 0.2531 | 2.0774 | 4.3603 | Log k IAM ([1]; ACN 0.05 v/v in mobile phase): 0.968; Log k IAM ([1]; ACN 0.10 v/v in mobile phase): 0.692; fraction unbound [2]: 0.041; Log k Chol ([3]; MeOH 0.30 v/v in mobile phase): 0.744; Log k Chol ([3]; MeOH 0.35 v/v in mobile phase): 0.656

More lines, main results first:

Row | Log k IAM ([1]; ACN 0.15 v/v in mobile phase) | Log k IAM ([1]; ACN 0.20 v/v in mobile phase) | Log k IAM ([1]; ACN 0.25 v/v in mobile phase) | Log k IAM ([1]; ACN 0.30 v/v in mobile phase) | Log k IAM ([1]; ACN 0.35 v/v in mobile phase) | log kw IAM [1] | -S IAM [1] | log K HSA [2] | log k HSA [2] | Log k Chol ([3]; MeOH 0.40 v/v in mobile phase) | Log k Chol ([3]; MeOH 0.50 v/v in mobile phase) | Log k Chol ([3]; MeOH 0.60 v/v in mobile phase) | Log k Chol ([3]; MeOH 0.80 v/v in mobile phase) | log kw Chol [3] | -S Chol [3] | log K AGP [5] | fraction unbound [5] | log k AGP [5] | SMILES | log kw C-18 [4] | -S C-18 [4] | also measured
5 | 0.809 | 0.533 | 0.278 | -0.130 | -0.258 | 1.6606 | 5.6500 | 1.5246 | 1.2098 | 1.025 | 0.405 | 0.062 | -1.016 | 3.0227 | 5.0400 | 0.7514 | 0.142 | 0.6494 | O=C(COc1ccccc1)NNC(=S)Nc1cccc2ccccc12 [Compound 18] | 2.6769 | 4.6919 | Log k IAM ([1]; ACN 0.10 v/v in mobile phase): 1.105; fraction unbound [2]: 0.019; Log k Chol ([3]; MeOH 0.30 v/v in mobile phase): 1.494; Log k Chol ([3]; MeOH 0.35 v/v in mobile phase): 1.296; Log k Chol ([3]; MeOH 0.45 v/v in mobile phase): 0.758
6 | 1.542 | 1.032 | 0.667 | 0.158 | -0.062 | 2.5780 | 7.5617 | 1.8712 | 1.5391 |  | 1.013 | 0.792 | -0.876 | 4.2283 | 6.2128 | 0.9150 | 0.099 | 0.8332 | O=C(COc1ccccc1)NNC(=S)Nc1ccc(Cl)c(Cl)c1 [Compound 15] | 3.3757 | 5.3305 | Log k IAM ([1]; ACN 0.40 v/v in mobile phase): -0.346; fraction unbound [2]: 0.003; Log k Chol ([3]; MeOH 0.45 v/v in mobile phase): 1.349; Log k Chol ([3]; MeOH 0.70 v/v in mobile phase): -0.087

Reference: article PMC10608985, “Retention Behavior of Anticancer Thiosemicarbazides in Biomimetic Chromatographic Systems and In Silico Calculations” (Molecules, 2023)
